{"source": "paper PMC9323733", "about": "“Efficacy of Vafidemstat in Experimental Autoimmune Encephalomyelitis Highlights the KDM1A/RCOR1/HDAC Epigenetic Axis in Multiple Sclerosis” (Pharmaceutics, 2022)", "key": {"[1]": {"test_system": "C57BL/6 mice with chronic EAE", "assay": "Chronic EAE induced by MOG35–55, clinical score", "format": "in vivo, mouse", "details": "for mean clinical score: EAE effector phase, p.o. 5 days from day 12, FTY720 1.0 mg/kg", "procedure": "Mice also received i.p. injections of 200 ng of pertussis toxin on days 0 and 2 [32]. Immunized mice were randomly distributed in different groups. […] MPTP is a prodrug which is converted to the neurotoxin 1-methyl-4-phenylpyridinium (MPP+) by MAO-B in vivo.\nCompounds were administered once daily for five consecutive days in two cycles, from day 12 to 16 and from day 19 to 23 post-immunization. […] HPβCD was included to facilitate dissolution. Mice were scored daily for signs of EAE according to the following clinical scoring system: 0, no clinical signs; 0.5, partial loss of tail tonicity; 1, complete loss of tail tonicity; 2, flaccid tail and abnormal gait; 3, complete hind leg paralysis; 4, hind leg paralysis with hind body paresis; 5, hind and foreleg paralysis; and 6, death. Intermediate phenotypes were scored as a half integer. Animals were sacrificed when they kept a score of 5 more than 24 h. Investigators which administered the compounds and scored the animals were blinded to the treatments."}, "spinal cord of EAE mice [2]": {"test_system": "spinal cord of EAE mice", "assay": "EAE, histopathology of spinal cord (demyelination plaques, infiltration)", "format": "in vivo, mouse", "details": "ORY-2001 0.5 mg/kg; for infiltrating/demyelinating plaques in spinal cord: day 17, FTY720 1.0 mg/kg", "procedure": "Cervical and lumbar spinal cord segments of spinal cords obtained from EAE mice sacrificed on day 17 or 26 post-immunization were divided and processed for inclusion and sectioning in paraffin and for inclusion in an optimal cutting temperature (OCT) compound and future cryosectioning of the samples. Spinal cord segments were immediately fixed with buffered 10% formalin for 48 h, dehydrated and included in paraffin using standard techniques. For a preliminary analysis, transversal sections (4 µm thickness) were stained with Luxol fast blue, cresyl violet, and hematoxylin following the Klüver–Barrera technique and were analyzed for the presence of areas of demyelination and cell infiltration using a light microscope (Leica, DM2000). After hematoxylin/eosin staining in the TMEV model, cell infiltration in the cervical and thoracic spinal cord was evaluated according to the criteria of Mansilla et al.: score 0: no lesion; 1: cellular infiltration only in the meninges; 2: very discrete and superficial infiltrates in the parenchyma; 3: moderate infiltration (less than 25%) in the white matter; 4: severe infiltration (less than 50%) in the white matter; and 5: high severe infiltration (>50%) in the white matter. The remaining spinal cord segments from EAE mice and from mice of the TMEV model were fixed with 4% paraformaldehyde/0.1 M phosphate buffer pH 7.4 for 12 h at 4 °C, cryopreserved in 30% sucrose in PBS for 24 h, embedded in OCT in liquid nitrogen, and stored at −80 °C prior to cryosectioning and immunohistochemistry. 20 and 30 µm-thick transversal cryostat sections from Tissue Tek embedded tissue were obtained from EAE and TMEV samples, respectively, and kept in a cryoprotection solution (30% ethylene glycol, 10 mg/mL polyvinylpyrrolidone-40 (PVP-40), 300 mg/mL sucrose in 60 mM PB) at −20 °C. Mouse #6 from the TMEV + vehicle group died on day 77 post-infection and was therefore not included."}, "spinal cord of EAE mice [3]": {"test_system": "spinal cord of EAE mice", "assay": "Microarray, spinal cord of EAE mice, effector phase (E), 24 h after treatment; ORY-2001 0.5 mg/kg, FTY720 1.0 mg/kg", "format": "in vivo, mouse", "procedure": "We evaluated differences in gene expression induced by the treatment using real-time PCR and by microarray hybridization analysis. First, total RNA was isolated from brain and spinal cord segments from EAE mice using Qiazol™ and the RNeasy MiniKit™ extraction kit (Qiagen). Evaluation of RNA quality was performed with the Agilent 2100 bioanalyzer and NanoDrop™ ND-1000 (Thermo Scientific, Dartford, Kent, UK). After DNAse I treatment, RNA (1 µg/sample) was reverse transcribed using RevertAid First strand cDNA Synthesis kit (Fermentas) and random hexamer primers. For evaluating the expression of the inflammatory markers TNFα, IL-1β, IP10, IL-4, and CCL5, real time PCR was performed by using iQ SYBR Green Supermix (Bio-Rad, Feldkirchen, Germany) according to manufacturer’s instructions in a BIORAD CFX96 thermal cycler. Primer sequences and PCR conditions are indicated in Supplementary Materials Table S3. Microarray studies were performed by using DNA microarray oligo probes designed with Tethys, Oryzon’s proprietary software which is based on the in silico thermodynamic simulation of hybridization. Agilent probes were added for genes which yielded no probes, complying with Tethys criteria. Control probes were used to assess detection limits and range, to verify spatial homogeneity, and to determine experimental within-array variation. Microarray slides were synthesized by Agilent. Total RNA (0.5 µg) amplification and labeling with Cy3 or Cy5 was carried out using a modified Eberwine mRNA amplification procedure employing the MessageAmp™ II aRNA Amplification kit from Ambion (ThermoFisher Scientific, Oxford, UK). […]\n(§1) For the gene expression studies, data from microarray assays were normalized by modified nonlinear Q-splines normalization method and Log2(Sample/Vehicle) values calculated without background correction (which permits robust selection of differentially expressed genes yet may lead to sub-estimation of the magnitude of change for genes expressed near the detection limit). Differential expression was assessed with the proprietary Polyphemus software using robust statistics on the average technical replicates (3 replicates/gene oligo datapoint) after removing eventual outlier points (caused by dust or array imperfections). […] The p values were calculated after outlier elimination based on the absolute value of the regularized t-statistics, which uses a Bayesian framework to derive the algorithm, using internal replicated controls to assess the minimum technical variability of the process. Correlation between gene expression changes induced by different treatments was analysed by calculating the Pearson correlation coefficient r using the Log2(Treatment/Veh) values for all genes expressed above background level (n). […]"}, "brain of EAE mice": {"test_system": "brain of EAE mice", "assay": "Microarray, brain of EAE mice, effector phase (E), 24 h after treatment; ORY-2001 0.5 mg/kg, FTY720 1.0 mg/kg", "format": "in vivo, mouse", "procedure": "We evaluated differences in gene expression induced by the treatment using real-time PCR and by microarray hybridization analysis. First, total RNA was isolated from brain and spinal cord segments from EAE mice using Qiazol™ and the RNeasy MiniKit™ extraction kit (Qiagen). Evaluation of RNA quality was performed with the Agilent 2100 bioanalyzer and NanoDrop™ ND-1000 (Thermo Scientific, Dartford, Kent, UK). After DNAse I treatment, RNA (1 µg/sample) was reverse transcribed using RevertAid First strand cDNA Synthesis kit (Fermentas) and random hexamer primers. For evaluating the expression of the inflammatory markers TNFα, IL-1β, IP10, IL-4, and CCL5, real time PCR was performed by using iQ SYBR Green Supermix (Bio-Rad, Feldkirchen, Germany) according to manufacturer’s instructions in a BIORAD CFX96 thermal cycler. Primer sequences and PCR conditions are indicated in Supplementary Materials Table S3. […]\nas §1"}, "[4]": {"test_system": "patients and healthy volunteers", "details": "cited from earlier work"}, "[5]": {"details": "EAE experiment 2, 0.5 or 1 mg/kg ORY-2001"}}}
{"smiles": "CCCCCCCCc1ccc(CCC(N)(CO)CO)cc1", "note": "[FTY720, Fingolimod, reference compound]", "values": [{"measurement": "mean clinical score", "setting": "[1]; ORY-2001 0.5 mg/kg", "value": "reduced the mean clinical score"}, {"measurement": "infiltrating/demyelinating plaques in spinal cord", "setting": "spinal cord of EAE mice [2]", "value": "reduced the number and size of demyelinating plaques in cervical but not in lumbar sections"}, {"measurement": "expression of Ogn", "setting": "spinal cord of EAE mice [3]", "value": "downregulated by FTY720"}, {"measurement": "expression of Cox1", "setting": "brain of EAE mice", "value": "induction of Cox1"}, {"measurement": "expression of pituitary markers Gh, Prl, Pomc, Cga", "setting": "brain of EAE mice", "value": "potently downregulated the pituitary markers Gh, Prl, Pomc, and Cga"}]}
{"smiles": "Nc1nnc(CN[C@@H]2C[C@H]2c2ccc(OCc3ccccc3)cc2)o1", "note": "[ORY-2001]", "values": [{"measurement": "mean clinical score", "setting": "[1]; ORY-2001 0.5 mg/kg", "value": "reduced the mean clinical score"}, {"measurement": "animals with mild clinical signs (clinical score ≤ 2)", "setting": "[1]; EAE experiment 1 (severe), p.o. ORY-2001 1 mg/kg", "value": 60, "unit": "%"}, {"measurement": "effect on disease severity", "setting": "[1]; EAE experiment 1 (severe), p.o. ORY-2001 1 mg/kg, ORY-LSD1 180 µg/kg", "value": "significantly reduced disease severity"}, {"measurement": "animals with severe manifestations/signs of the disease", "setting": "[1]; EAE experiment 1 (severe), p.o. ORY-2001 1 mg/kg, ORY-LSD1 180 µg/kg (maximum clinical score ≥ 4.0)", "value": 10, "unit": "%"}, {"measurement": "mean maximum clinical score", "setting": "[1]; EAE experiment 1 (severe), p.o. ORY-2001 1 mg/kg, ORY-LSD1 180 µg/kg, days 12-16 and 19-23", "value": 1.8}, {"measurement": "mice with no or only mild clinical signs at the end of the study", "setting": "[1]; EAE experiment 2", "value": "70–80%"}, {"measurement": "effect on clinical course / disease severity", "setting": "[1]; EAE experiment 2 (mild), p.o. ORY-2001 0.05, 0.5, 1 mg/kg, ORY-LSD1 90, 180 µg/kg, rasagiline 3 mg/kg", "value": "significantly reduced disease severity"}, {"measurement": "mice with mild clinical signs", "setting": "[1]; [5]", "value": 50, "unit": "%"}, {"measurement": "mice with no clinical signs", "setting": "[1]; [5]", "value": 10, "unit": "%"}, {"measurement": "duration of protection after short term treatment", "setting": "[1]; EAE experiment 2, 40 days after disease onset", "value": "long-lasting protective effect"}, {"measurement": "animals with severe signs (maximum clinical score 3.5–6)", "setting": "[1]; EAE experiment 2, highest dose tested", "value": "none"}, {"measurement": "relapse", "setting": "[1]; EAE experiment 2, lowest dose 0.05 mg/kg", "value": "suffered a relapse during the last week of follow-up"}, {"measurement": "clinical signs at the peak of the disease", "setting": "[1]; EAE sub-chronic phase, to day 26, p.o. ORY-2001 0.5 mg/kg, ORY-LSD1 180 µg/kg", "value": "reduced the clinical signs"}, {"measurement": "severity of symptoms in treated mice", "setting": "[1]; EAE sub-chronic phase, ORY-2001 0.5 mg/kg", "value": "displayed only mild symptoms"}, {"measurement": "infiltrating/demyelinating plaques in spinal cord", "setting": "spinal cord of EAE mice [2]", "value": "reduced the presence of infiltrating/demyelinating plaques in both cervical and lumbar segments"}, {"measurement": "plaques with inflammatory infiltrates and areas of demyelination", "setting": "spinal cord of EAE mice [2]; day 26, lumbar and cervical, ORY-LSD1 180 µg/kg", "value": "significantly reduced the number of plaques"}, {"measurement": "expression of Aif1, Bst2, Rgs4 and Mtap9", "setting": "spinal cord of EAE mice [3]", "value": "downregulated Aif1"}, {"measurement": "expression of Ogn", "setting": "spinal cord of EAE mice [3]", "value": "preserved the expression of Ogn"}, {"measurement": "expression of Ptpn11, Kif1b and Pik3r1", "setting": "spinal cord of EAE mice [3]", "value": "prevented the induction of Ptpn11"}, {"measurement": "expression of pituitary markers Gh, Prl, Pomc, Cga", "setting": "brain of EAE mice", "value": "potently downregulated the pituitary markers Gh, Prl, Pomc, and Cga"}, {"measurement": "YKL40 levels in patients", "setting": "[4]; AD Phase II trial ETHERAL, relative to placebo", "value": "significantly reduced relative to placebo"}, {"measurement": "aggression", "setting": "[4]; BPD, ADHD, ASD and moderate-severe AD, Phase IIa REIMAGINE and REIMAGINE-AD", "value": "significantly reduced aggression"}, {"measurement": "safety in humans", "setting": "[4]; more than 300 subjects in multiple studies", "value": "has been shown to be safe"}, {"measurement": "safety and tolerability, long-term treatment", "setting": "[4]; relapse-remitting and secondary progressive MS, SATEEN", "value": "safe and well tolerated"}]}
